How the values were obtained:
Format in all cases: cell-based
[1] = molecular target: T1, EGFR WT (Ba/F3 cells) (Homo sapiens, UniProt P00533); experiment: Inhibitor activity on EGFR-dependent cell growth (CellTiter-Glo, 72 h), Ba/F3 EGFR WT; conditions: read-out: BaF3 WT IC50
T1 construct: expressed in transfected cells; host or cells: Ba/F3 (murine pro-B cells), retroviral transduction, puromycin selection, maintained with EGF
In short: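 This growth assay used Ba/F3 cells that depend on wild-type EGFR and are kept in EGF without IL3. Compounds were made up as 10 mM DMSO stocks and diluted 3-fold over 10 points. 120 nL went onto 600 cells/well. After 72 hours, 40 μL CellTiter-Glo was added and luminescence read on EnVision after 30 min.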

[2] = molecular target: T2, EGFR exon 20 FQEA Ins A763_V764 (Ba/F3 cells) (Homo sapiens, UniProt P00533, INS763FQEA); experiment: Inhibitor activity on EGFR-dependent cell growth (CellTiter-Glo, 72 h), Ba/F3 EGFR exon 20 FQEA Ins; conditions: read-out: BaF3 FQEA IC50
T2 construct: expressed in transfected cells; host or cells: Ba/F3 (murine pro-B cells), retroviral transduction, puromycin selection, IL3-independent pool
In short: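 Ba/F3, retrovirally transduced, puromycin-selected, grown without IL3; cells/well: L858R 400, L858R/C797S 600, exon 19del 800, FQEA 800. Cpds from 10 mM DMSO stock, 3-fold ×10 dilution, 120 nL per well; 72 h. CTG readout; IC50 via Hill equation.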

[3] = molecular target: T3, EGFR exon 20 ASV Ins V769_D770 (Ba/F3 cells) (Homo sapiens, UniProt P00533, INS769ASV); experiment: Inhibitor activity on EGFR-dependent cell growth (CellTiter-Glo, 72 h), Ba/F3 EGFR exon 20 ASV Ins; conditions: read-out: BaF3 ASV IC50
T3 construct: expressed in transfected cells; host or cells: Ba/F3 (murine pro-B cells), retroviral transduction, puromycin selection, IL3-independent pool
In short: (§1)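 IC50s derive from a sigmoidal dose–response fit of CellTiter-Glo signal. The signal was normalised between […]-treated cells and cell-free medium. Ba/F3 mutant-EGFR cells, seeded at 400–800/well depending on the line, had 72 h of exposure to a 10-point, 3-fold compound series.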

[4] = molecular target: T4, EGFR exon 20 SVD Ins D770_N771 (Ba/F3 cells) (Homo sapiens, UniProt P00533, INS770SVD); experiment: Inhibitor activity on EGFR-dependent cell growth (CellTiter-Glo, 72 h), Ba/F3 EGFR exon 20 SVD Ins; conditions: read-out: BaF3 SVD IC50
T4 construct: expressed in transfected cells; host or cells: Ba/F3 (murine pro-B cells), retroviral transduction, puromycin selection, IL3-independent pool
In short: as §1

[5] = molecular target: T5, EGFR exon 20 NPG Ins D770_N771 (Ba/F3 cells) (Homo sapiens, UniProt P00533, INS770NPG); experiment: Inhibitor activity on EGFR-dependent cell growth (CellTiter-Glo, 72 h), Ba/F3 EGFR exon 20 NPG Ins; conditions: read-out: BaF3 NPG IC50
T5 construct: expressed in transfected cells; host or cells: Ba/F3 (murine pro-B cells), retroviral transduction, puromycin selection, IL3-independent pool
In short: as §1

T4 sequence (P00533 with tags, fused parts or gaps INS770SVD): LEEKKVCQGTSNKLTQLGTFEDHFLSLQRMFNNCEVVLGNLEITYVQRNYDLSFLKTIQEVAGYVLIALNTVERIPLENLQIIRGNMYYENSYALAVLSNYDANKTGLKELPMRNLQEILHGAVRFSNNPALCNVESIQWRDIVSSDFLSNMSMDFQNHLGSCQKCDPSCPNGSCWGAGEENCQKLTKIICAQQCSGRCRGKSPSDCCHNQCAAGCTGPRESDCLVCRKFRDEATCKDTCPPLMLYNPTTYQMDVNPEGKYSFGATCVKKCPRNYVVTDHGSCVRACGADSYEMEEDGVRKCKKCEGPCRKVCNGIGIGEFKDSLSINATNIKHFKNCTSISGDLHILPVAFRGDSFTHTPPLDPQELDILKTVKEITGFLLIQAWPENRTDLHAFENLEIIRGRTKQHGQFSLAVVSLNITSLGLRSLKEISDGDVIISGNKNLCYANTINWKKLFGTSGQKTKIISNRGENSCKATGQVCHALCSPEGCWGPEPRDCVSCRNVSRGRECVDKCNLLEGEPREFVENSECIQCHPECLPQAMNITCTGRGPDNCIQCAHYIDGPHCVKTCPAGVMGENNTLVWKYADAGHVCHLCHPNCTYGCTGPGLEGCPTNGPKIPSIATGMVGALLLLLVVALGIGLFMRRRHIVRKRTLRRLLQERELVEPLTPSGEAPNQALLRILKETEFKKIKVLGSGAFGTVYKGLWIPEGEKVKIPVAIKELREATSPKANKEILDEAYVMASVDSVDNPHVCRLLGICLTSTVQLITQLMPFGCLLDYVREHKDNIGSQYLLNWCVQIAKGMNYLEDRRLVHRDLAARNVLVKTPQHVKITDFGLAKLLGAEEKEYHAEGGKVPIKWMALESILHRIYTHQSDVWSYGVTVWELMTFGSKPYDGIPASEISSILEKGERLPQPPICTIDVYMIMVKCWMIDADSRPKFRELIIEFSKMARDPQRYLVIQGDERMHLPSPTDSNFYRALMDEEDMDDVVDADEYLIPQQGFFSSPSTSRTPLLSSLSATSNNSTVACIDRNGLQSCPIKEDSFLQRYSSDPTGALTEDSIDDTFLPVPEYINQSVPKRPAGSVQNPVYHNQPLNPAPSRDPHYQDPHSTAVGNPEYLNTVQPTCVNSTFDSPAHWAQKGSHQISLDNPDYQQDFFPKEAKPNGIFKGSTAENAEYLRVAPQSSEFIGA
T5 sequence (P00533 with tags, fused parts or gaps INS770NPG): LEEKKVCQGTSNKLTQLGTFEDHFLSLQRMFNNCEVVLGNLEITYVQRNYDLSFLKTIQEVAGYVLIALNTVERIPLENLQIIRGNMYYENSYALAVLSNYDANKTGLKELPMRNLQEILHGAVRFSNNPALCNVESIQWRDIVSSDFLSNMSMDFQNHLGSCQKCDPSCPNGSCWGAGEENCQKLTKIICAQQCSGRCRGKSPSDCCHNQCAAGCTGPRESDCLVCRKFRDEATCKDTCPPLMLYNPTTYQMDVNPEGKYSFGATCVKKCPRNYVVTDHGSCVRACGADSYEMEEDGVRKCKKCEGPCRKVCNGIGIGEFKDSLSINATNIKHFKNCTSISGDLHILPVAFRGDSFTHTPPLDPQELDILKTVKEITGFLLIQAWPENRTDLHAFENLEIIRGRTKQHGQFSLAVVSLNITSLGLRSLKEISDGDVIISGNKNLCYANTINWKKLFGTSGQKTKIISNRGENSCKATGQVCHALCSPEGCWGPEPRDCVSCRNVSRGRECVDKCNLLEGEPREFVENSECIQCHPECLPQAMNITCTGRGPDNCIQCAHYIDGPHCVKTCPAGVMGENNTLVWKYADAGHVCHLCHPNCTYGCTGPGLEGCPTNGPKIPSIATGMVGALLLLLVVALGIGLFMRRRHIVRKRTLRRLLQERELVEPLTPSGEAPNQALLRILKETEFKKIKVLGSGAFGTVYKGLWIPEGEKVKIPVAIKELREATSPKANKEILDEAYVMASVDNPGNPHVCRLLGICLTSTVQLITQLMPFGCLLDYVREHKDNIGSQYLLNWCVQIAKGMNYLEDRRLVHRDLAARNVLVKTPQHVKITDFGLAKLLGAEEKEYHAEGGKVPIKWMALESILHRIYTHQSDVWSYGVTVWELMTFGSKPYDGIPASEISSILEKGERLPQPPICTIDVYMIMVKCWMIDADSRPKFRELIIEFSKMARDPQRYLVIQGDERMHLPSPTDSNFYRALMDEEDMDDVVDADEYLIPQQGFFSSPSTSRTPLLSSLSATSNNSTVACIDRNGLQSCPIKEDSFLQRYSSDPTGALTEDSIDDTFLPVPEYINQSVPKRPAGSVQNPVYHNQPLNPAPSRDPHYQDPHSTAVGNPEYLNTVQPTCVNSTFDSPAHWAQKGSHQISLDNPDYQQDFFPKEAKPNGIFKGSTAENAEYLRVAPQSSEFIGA
T1 sequence (P00533 25-1210): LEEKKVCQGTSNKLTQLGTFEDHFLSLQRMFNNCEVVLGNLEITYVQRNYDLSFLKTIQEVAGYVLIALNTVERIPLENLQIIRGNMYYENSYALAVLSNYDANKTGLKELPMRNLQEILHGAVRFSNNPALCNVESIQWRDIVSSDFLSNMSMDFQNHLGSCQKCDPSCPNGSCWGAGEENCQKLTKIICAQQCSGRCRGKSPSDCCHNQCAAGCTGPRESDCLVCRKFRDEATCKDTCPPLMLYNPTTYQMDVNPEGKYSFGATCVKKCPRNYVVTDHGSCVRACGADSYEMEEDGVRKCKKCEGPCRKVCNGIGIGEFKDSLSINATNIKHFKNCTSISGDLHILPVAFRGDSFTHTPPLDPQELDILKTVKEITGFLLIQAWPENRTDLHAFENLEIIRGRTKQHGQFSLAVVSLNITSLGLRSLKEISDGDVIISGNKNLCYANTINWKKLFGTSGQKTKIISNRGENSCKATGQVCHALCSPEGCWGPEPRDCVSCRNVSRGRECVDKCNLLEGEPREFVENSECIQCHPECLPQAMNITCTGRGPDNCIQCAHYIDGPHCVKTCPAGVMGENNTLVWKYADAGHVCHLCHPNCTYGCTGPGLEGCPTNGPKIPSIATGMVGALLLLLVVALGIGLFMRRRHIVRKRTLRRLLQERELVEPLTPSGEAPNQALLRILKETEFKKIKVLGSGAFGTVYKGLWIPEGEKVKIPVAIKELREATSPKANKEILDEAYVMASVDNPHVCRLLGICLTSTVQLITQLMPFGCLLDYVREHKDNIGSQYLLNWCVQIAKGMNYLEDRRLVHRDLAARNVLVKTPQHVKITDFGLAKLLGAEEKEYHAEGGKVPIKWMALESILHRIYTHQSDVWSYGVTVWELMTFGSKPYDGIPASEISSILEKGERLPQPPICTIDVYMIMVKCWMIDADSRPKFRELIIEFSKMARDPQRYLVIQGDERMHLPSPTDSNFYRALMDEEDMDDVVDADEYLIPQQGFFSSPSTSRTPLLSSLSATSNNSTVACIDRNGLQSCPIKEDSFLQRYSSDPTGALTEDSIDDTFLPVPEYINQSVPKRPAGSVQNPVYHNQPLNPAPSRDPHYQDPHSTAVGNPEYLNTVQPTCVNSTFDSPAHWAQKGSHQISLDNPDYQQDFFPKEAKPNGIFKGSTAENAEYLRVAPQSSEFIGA
T2 sequence (P00533 with tags, fused parts or gaps INS763FQEA): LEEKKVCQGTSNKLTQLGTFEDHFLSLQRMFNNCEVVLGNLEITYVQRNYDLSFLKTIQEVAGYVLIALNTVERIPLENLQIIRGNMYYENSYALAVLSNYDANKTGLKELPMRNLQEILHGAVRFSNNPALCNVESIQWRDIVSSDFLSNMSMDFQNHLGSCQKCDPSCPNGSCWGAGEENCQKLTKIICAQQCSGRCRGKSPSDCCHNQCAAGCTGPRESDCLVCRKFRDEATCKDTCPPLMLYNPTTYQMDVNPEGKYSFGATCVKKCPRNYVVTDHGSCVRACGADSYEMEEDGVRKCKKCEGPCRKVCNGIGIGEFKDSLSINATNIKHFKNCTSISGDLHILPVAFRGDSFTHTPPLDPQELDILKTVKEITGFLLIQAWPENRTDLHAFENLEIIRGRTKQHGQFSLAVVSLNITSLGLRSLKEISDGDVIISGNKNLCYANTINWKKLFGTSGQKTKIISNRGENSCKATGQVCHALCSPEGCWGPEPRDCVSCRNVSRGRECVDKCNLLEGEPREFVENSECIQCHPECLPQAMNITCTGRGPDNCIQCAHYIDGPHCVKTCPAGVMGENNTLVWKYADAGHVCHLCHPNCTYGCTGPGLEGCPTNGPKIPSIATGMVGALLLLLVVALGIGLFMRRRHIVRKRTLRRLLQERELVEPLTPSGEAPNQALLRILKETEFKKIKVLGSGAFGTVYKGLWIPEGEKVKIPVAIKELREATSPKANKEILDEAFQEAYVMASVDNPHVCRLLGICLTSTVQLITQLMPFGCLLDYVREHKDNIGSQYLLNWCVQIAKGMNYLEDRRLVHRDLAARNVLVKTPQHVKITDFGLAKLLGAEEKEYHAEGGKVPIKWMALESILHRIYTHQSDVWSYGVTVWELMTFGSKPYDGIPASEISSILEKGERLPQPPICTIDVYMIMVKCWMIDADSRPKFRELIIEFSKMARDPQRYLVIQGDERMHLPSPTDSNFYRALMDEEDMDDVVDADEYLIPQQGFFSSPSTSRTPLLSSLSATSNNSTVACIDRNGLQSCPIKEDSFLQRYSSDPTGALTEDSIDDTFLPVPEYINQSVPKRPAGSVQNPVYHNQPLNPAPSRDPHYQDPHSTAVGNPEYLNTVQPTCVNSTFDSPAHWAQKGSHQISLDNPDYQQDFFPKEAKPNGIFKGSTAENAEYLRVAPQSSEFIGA

Row | SMILES | IC50 [1] [nM] | IC50 [2] [nM] | IC50 [3] [nM] | IC50 [4] [nM] | IC50 [5] [nM]
1 | COc1c(Cl)cccc1Nc1c(-c2ccncc2F)[nH]c2c1C(=O)NC[C@@H]2CC1COC1 [468a] | > 1000 | > 1000 | > 1000 | > 1000 | 100 to 1000
2 | COc1c(F)cccc1Nc1c(-c2ccncc2F)[nH]c2c1C(=O)NC[C@H]2CC1COC1 [469a] | > 1000 | > 1000 | > 1000 | > 1000 | > 1000
3 | COc1c(F)cccc1Nc1c(-c2ccncc2F)[nH]c2c1C(=O)NC[C@@H]2CC1COC1 [469b] | > 1000 | > 1000 | > 1000 | > 1000 | > 1000
4 | COc1c(F)cccc1Nc1c(-c2ccncc2F)[nH]c2c1C(=O)NC[C@@H]2C[C@H]1CCO1 [Compound 422c, (7S)-3-[(3-fluoro-2-methoxyphenyl)amino]-2-(3-fluoropyridin-4-yl)-7-[(2S)-oxetan-2-ylmethyl]-1H,5H,6H,7H-pyrrolo[3,2-c]pyridin-4-one] | > 1000 | 100 to 1000 | 100 to 1000 | 100 to 1000 | 100 to 1000
5 | COc1c(F)cccc1Nc1c(-c2ccncc2F)[nH]c2c1C(=O)NC[C@H]2C[C@H]1CCO1 [Compound 422d, (7R)-3-[(3-fluoro-2-methoxyphenyl)amino]-2-(3-fluoropyridin-4-yl)-7-[(2S)-oxetan-2-ylmethyl]-1H,5H,6H,7H-pyrrolo[3,2-c]pyridin-4-one] | 100 to 1000 | 100 to 1000 | < 100 | < 100 | < 100
6 | COc1c(Cl)cccc1Nc1c(-c2ccncc2F)[nH]c2c1C(=O)NC[C@@H]2CC(=O)N(C)C [Compound 488] | > 1000 | 100 to 1000 | < 100 | < 100 | < 100
7 | COc1c(F)cccc1Nc1c(-c2ccncc2F)[nH]c2c1C(=O)NC[C@@H]2C[C@@H]1COCCO1 [Compound 526, (7S)-7-[(2R)-1,4-dioxan-2-ylmethyl]-3-[(3-fluoro-2-methoxyphenyl)amino]-2-(3-fluoropyridin-4-yl)-1H,5H,6H,7H-pyrrolo[3,2-c]pyridin-4-one] | > 1000 | 100 to 1000 | 100 to 1000 | 100 to 1000 | 100 to 1000
8 | COc1c(Cl)cccc1Nc1c(-c2ccnc3cccnc23)[nH]c2c1C(=O)NCC2 [Compound 683, 3-[(3-chloro-2-methoxyphenyl)amino]-2-(1,5-naphthyridin-4-yl)-1H,5H,6H,7H-pyrrolo[3,2-c]pyridin-4-one] | 100 to 1000 | < 100 | < 100 | < 100 | < 100
9 | COc1c(Cl)cc(F)cc1Nc1c(-c2ccnc(N)n2)[nH]c2c1C(=O)NCC2 [Compound 714, 2-(2-aminopyrimidin-4-yl)-3-[(3-chloro-5-fluoro-2-methoxyphenyl)amino]-1H,5H,6H,7H-pyrrolo[3,2-c]pyridin-4-one; trifluoroacetic acid] | > 1000 | 100 to 1000 | 100 to 1000 | 100 to 1000 | < 100
10 | CSc1c(F)cccc1Nc1c(-c2ccnc(N)n2)[nH]c2c1C(=O)NCC2 [Compound 716, 2-(2-aminopyrimidin-4-yl)-3-[[3-fluoro-2-(methylsulfanyl)phenyl]amino]-1H,5H,6H,7H-pyrrolo[3,2-c]pyridin-4-one; trifluoroacetic acid] | > 1000 | 100 to 1000 | 100 to 1000 | 100 to 1000 | 100 to 1000
11 | COCC[C@H]1CNC(=O)c2c1[nH]c(-c1ccnc(N)n1)c2Nc1cccc(Cl)c1OC [Compound 727, (7S)-2-(2-aminopyrimidin-4-yl)-3-[(3-chloro-2-methoxyphenyl)amino]-7-(2-methoxyethyl)-1H,5H,6H,7H-pyrrolo[3,2-c]pyridin-4-one] | 100 to 1000 | < 100 | < 100 | < 100 | < 100
12 | COc1c(Cl)cccc1Nc1c(-c2ccnc3ccc(OC4(C)CC4)nc23)[nH]c2c1C(=O)NCC2 [Compound 767, 3-[(3-chloro-2-methoxyphenyl)amino]-2-[6-(1-methylcyclopropoxy)-1,5-naphthyridin-4-yl]-1H,5H,6H,7H-pyrrolo[3,2-c]pyridin-4-one] | < 100 | < 100 | < 100 | < 100 | < 100
13 | COc1c(Cl)cccc1Nc1c(-c2ccnc(Nc3ccn(C)n3)n2)[nH]c2c1C(=O)NCC2 [compound 509, 3-[(3-chloro-2-methoxyphenyl)amino]-2-{2-[(1-methylpyrazol-3-yl)amino]pyrimidin-4-yl}-1H,5H,6H,7H-pyrrolo[3,2-c]pyridin-4-one] | < 100 | < 100 | < 100 | < 100 | < 100
14 | COc1c(Nc2c(-c3ccnc(N)n3)[nH]c3c2C(=O)NCC3)ccc(F)c1Cl [compound 713, 2-(2-aminopyrimidin-4-yl)-3-[(3-chloro-4-fluoro-2-methoxyphenyl)amino]-1H,5H,6H,7H-pyrrolo[3,2-c]pyridin-4-one] | > 1000 | > 1000 | 100 to 1000 | 100 to 1000 | 100 to 1000
15 | COc1c(Cl)cccc1Nc1c(-c2ccnc(NC[C@@H]3CCO3)n2)[nH]c2c1C(=O)NCC2 [compound 719] | > 1000 | > 1000 | 100 to 1000 | > 1000 | 100 to 1000
16 | COc1c(Cl)cccc1Nc1c(-c2ccnc3ccc(OC4COC4)nc23)[nH]c2c1C(=O)NCC2 [compound 732, 3-[(3-chloro-2-methoxyphenyl)amino]-2-[6-(oxetan-3-yloxy)-1,5-naphthyridin-4-yl]-1H,5H,6H,7H-pyrrolo[3,2-c]pyridin-4-one] | < 100 | < 100 | < 100 | < 100 | < 100
17 | COc1c(Cl)cccc1Nc1c(-c2ccnc3ccc(OC[C@H]4CCO4)nc23)[nH]c2c1C(=O)NCC2 [compound 734, 3-[(3-chloro-2-methoxyphenyl)amino]-2-[6-[(2R)-oxetan-2-ylmethoxy]-1,5-naphthyridin-4-yl]-1H,5H,6H,7H-pyrrolo[3,2-c]pyridin-4-one] | 100 to 1000 | < 100 | < 100 | < 100 | < 100
18 | COc1c(Cl)cccc1Nc1c(-c2ccnc3ccc(OC[C@@H]4CCO4)nc23)[nH]c2c1C(=O)NCC2 [compound 735, 3-[(3-chloro-2-methoxyphenyl)amino]-2-[6-[(2S)-oxetan-2-ylmethoxy]-1,5-naphthyridin-4-yl]-1H,5H,6H, 7H-pyrrolo[3,2-c]pyridin-4-one] | 100 to 1000 | < 100 | < 100 | < 100 | < 100
19 | COc1c(Cl)cccc1Nc1c(-c2ccnc3ccc(OCCN(C)C)nc23)[nH]c2c1C(=O)NCC2 [compound 736, 3-[(3-chloro-2-methoxyphenyl)amino]-2-[6-[2-(dimethylamino)ethoxy]-1,5-naphthyridin-4-yl]-1H,5H,6H,7H-pyrrolo[3,2-c] pyridin-4-one; formic acid] | 100 to 1000 | 100 to 1000 | < 100 | < 100 | 100 to 1000
20 | COc1c(Cl)cccc1Nc1c(-c2ccnc3ccc(OCC4COC4)nc23)[nH]c2c1C(=O)NCC2 [compound 737, 3-[(3-chloro-2-methoxyphenyl)amino]-2-[6-(oxetan-3-ylmethoxy)-1,5-naphthyridin-4-yl]-1H,5H,6H,7H-pyrrolo[3,2-c] pyridin-4-one] | 100 to 1000 | < 100 | < 100 | < 100 | < 100
21 | COc1c(Cl)cccc1Nc1c(-c2ccnc3ccc(OCC4CN(C)C4)nc23)[nH]c2c1C(=O)NCC2 [compound 738, 3-[(3-chloro-2-methoxyphenyl)amino]-2-[6-[(1-methylazetidin-3-yl)methoxy]-1,5-naphthyridin-4-yl]-1H,5H,6H,7H-pyrrolo[3,2-c]pyridin-4-one] | 100 to 1000 | 100 to 1000 | < 100 | < 100 | < 100
22 | COc1c(Cl)cccc1Nc1c(-c2ccnc3ccc(O[C@H]4CCOC4)nc23)[nH]c2c1C(=O)NCC2 [compound 739, 3-[(3-chloro-2-methoxyphenyl)amino]-2-[6-[(3S)-oxolan-3-yloxy]-1,5-naphthyridin-4-yl]-1H,5H,6H,7H-pyrrolo[3,2-c]pyridin-4-one] | 100 to 1000 | 100 to 1000 | < 100 | < 100 | < 100
